Legend:
[1] = test system: HaCaT cell line; assay: MTT cell viability analysis (cytotoxicity), HaCaT; format: cell-based, human; settings: 24 hours, FIG. 1
Experimental: Pachastrissamine's cytotoxicity on a HaCaT cell line and a malignant melanoma cell line was researched through MTT cell viability analysis.
First, each of a HaCaT cell line (German Cancer Research, obtained from prof. N. Fuseni, Germany), and two kinds of malignant melanoma cell lines, B16F10 (B16) and A375 were inoculated into a DMEM (Dulbecco's Modified Eagle's Medium) culture medium added with 10% FBS (Thermo Fisher Scientific Inc.), 100 unit/ml penicillin, and 100 μg/ml streptomycin, and then cultured in a CO2 incubator (Form a Scientific, Inc.) (37° C., 5%).
The cultured HaCaT, B16F10, and A375 cells were plated onto a 96-well plate at a concentration of 5×10^4 cells/well, and cultured in a CO2 incubator (37° C., 5%) for 24 hours. The cells in respective wells were treated with pachastrissamine and phytosphingosine at various concentrations of 0, 0.9, 1.8, 3.7, 7.5, 10 μg/ml, and cultured in a CO2 incubator (37° C., 5%) for 24 hours. After the culturing, in a state where the culture medium existed, each well was added with 5 mg/ml MTT reagent at a concentration of 20 μl/[…], and cultured in an incubator for 2 hours. After 2 hours, the culture medium was removed, and each well was added with 150 μl of DMSO (dimethyl sulfoxide). Then, a spectrophotometer was used to measure the absorbance at 540 nm, thereby analyzing the cell viability. Herein, the cell viability was represented as a relative value with respect to 100% of cell viability in a control group not treated with pachastrissamine and phytosphingosine.

[2] = test system: HaCaT cell; assay: Phase-contrast microscope morphology analysis of surviving cells; format: cell-based, human; settings: HaCaT, 24 hours
Experimental: HaCaT, B16F10 and A375 cell lines were cultured in the same manner as described in Example 1. The cultured HaCaT cell line was plated onto a 60 mm plate at a concentration of 5×10^4 cells/well, and cultured in a CO2 incubator (37° C., 5%) for 24 hours. The cultured respective cells were divided into 4 groups. One group was added with only pachastrissamine (PA) at a concentration of 10 μg/ml; another group was added with lithium chloride (apoptosis inhibiting material) (at a final concentration of 300 nM) as well as pachastrissamine at a concentration of 10 μg/ml (PA+Li); and a third group was added with only lithium chloride (Li). The last group was a negative control group (Con) and was added with nothing. These groups were cultured in a CO2 incubator (37° C., 5%) for 24 hours, and then the number of cells were measured in the same manner as described in Example 2-2.
The four groups of HaCaT cell samples were washed with PBS, and then surviving cells were subjected to morphology analysis through a phase-contrast microscope (see FIG. 2f).

[3] = test system: MEK; assay: Western blotting of MEK activity (caMEK or N-Ras/H-Ras over-expression) in HaCaT; format: cell-based, human; settings: HaCaT with caMEK or N-Ras/H-Ras over-expression; FIGS. 3E, 3F
Experimental: In the same manner, MEK(caMEK) continuously activated in the HaCaT cell line was over-expressed so as to activate ERK in a lower signaling pathway of MEK. The HaCaT cell line whose ERK was activated by MEK was treated with pachastrissamine and U0126 and PD98059 (ERK inhibitors). Then, western blotting was carried out using anti-pMEK, anti-MEK, anti-pEKR, anti-EKR, and anti-actin antibodies so as to carry out comparative analysis (see FIG. 3E).
Further, in the same manner, two DNAs of N-Ras and H-Ras, in a previous step of MEK/ERK signal transduction, were over-expressed through transfection while a HaCaT cell line was cultured. Then, after treatment with pachastrissamine and phytosphingosine, western blotting was carried out using anti-pMEK, and anti-MEK antibodies so as to carry out comparative analysis of MEK activity (see FIG. 3F).

[4] = test system: FoxO3a; assay: Western blotting of FoxO3a protein expression in HaCaT; format: cell-based, human
Experimental: A HaCaT cell line was cultured in the same manner as described in Example 1. […] Then, western blotting was carried out by using FoxO3a antibody as a primary antibody.
Then, western blotting was carried out by using FoxO3a antibody as a primary antibody so as to carry out comparative analysis on the level of protein expression.

[5] = test system: p-FoxO3a (Ser 253); assay: Western blotting of p-FoxO3a (Ser 253); format: cell-based; settings: HaCaT, A375, B16F10, 10 μg/ml, FIGS. 4B, 4C
Experimental: In the same manner as described in Example 4-1, a HaCaT cell line and malignant melanoma cell lines (A375 and B16F10) were treated with pachastrissamine and phytosphingosine at a concentration of 10 μg/ml for 30 minutes and 60 minutes, respectively. Then, western blotting was carried out using p-FoxO3a (Ser 253) antibody.

[6] = test system: FoxO3a; assay: FoxO3a immunoprecipitation and ubiquitin western blotting in HEK293T; format: cell-based; settings: pachastrissamine and EGF
Experimental: Then, immunoprecipitation was carried out using FoxO3a antibody. The sample obtained from immunoprecipitation was subjected to western blotting by using ubiquitin antibody so as to carry out comparative analysis.

[7] = test system: GSK3-beta / beta-catenin; assay: Western blotting of pGSK3-beta, GSK3-beta, pCatenin and Catenin in HaCaT; format: cell-based, human; settings: 30 minutes, FIG. 5A
Experimental: The pachastrissamine's effect on beta-catenin protein expression was researched. In the same manner as described in Example 1, a HaCaT cell line was cultured.

[8] = test system: beta-catenin; assay: Beta-catenin protein in malignant melanoma cell line (FIG. 5B); format: cell-based
[9] = pachastrissamine 10 μg/ml, LiCl 300 nM

CCCCCCCCCCCCCC[C@@H]1OC[C@H](N)[C@@H]1O [pachastrissamine]
cell viability (number of surviving cells) with increasing concentration ([1]; 0, 0.9, 1.8, 3.7, 7.5, 10 μg/ml): the number of surviving cells was reduced | cytotoxicity compared with phytosphingosine [1]: lower cytotoxicity than phytosphingosine | number of surviving cells compared to negative control group ([2]; 10 μg/ml, phase-contrast microscope, FIG. 2f): the number of surviving cells was significantly reduced | cell division extent increased by lithium chloride, effect of pachastrissamine ([2]; pachastrissamine 10 μg/ml + lithium chloride 300 nM): inhibited | MEK activity (upper signal of ERK) [3]: inhibition effect on MEK | protein expression level of FoxO3a compared to control group ([4]; 5 and 10 μg/ml, 24 hours, FIG. 4A): increased | extent of protein expression of FoxO3a, pachastrissamine and PD98059 together ([4]; pachastrissamine together with PD98059, versus each single material, FIG. 4E): it was not found that the extent of protein expression was increased | extent of protein expression of FoxO3a, pachastrissamine and U0126 together ([4]; pachastrissamine together with U0126, versus each single material, FIG. 4E): significantly increased compared to other samples treated with each single material | level of protein expression of FoxO3a, single material ([4]; treated as in Example 3-2, compared to negative control, FIG. 4E): the amount of FoxO3a protein was increased | amount of expressed p-FoxO3a after 30 minutes ([5]; 30 minutes): reduced | expression of p-FoxO3a after 60 minutes ([5]; 60 minutes): increased an expression of p-FoxO3a | ubiquitination degree of FoxO3a increased by EGF [6]: decreased | beta-catenin protein degradation ([7]; 10 μg/ml): induced the degradation of beta-catenin protein | phosphorylation of GSK3-beta [7, 9]: phosphorylation of GSK3-beta was inhibited | phosphorylation of beta-catenin [7, 9]: increasing the phosphorylation of beta-catenin | beta-catenin protein degradation in malignant melanoma cell line [8]: can induce the degradation of beta-catenin protein
